Patent US20230159511A1, “TETRAHYDROISOQUINOLINE COMPOUNDS AS NRF2 ACTIVATORS” (C4X Discovery Limited, priority 2020, published 2023)

Tests used:
[1] = test system: NRF2 mediated gene NAD(P)H:quinone acceptor oxidoreductase 1 (NQO1) in BEAS-2B cells; test: Beas2B NQO1 mRNA Cell Based Assay; parameters: species or system human; conditions: Homo sapiens; BEAS-2B cells, compound for 24 h; increase in NQO1 mRNA compared to vehicle (0.1% DMSO) control; read-out: EC50
Summary of the method: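 BEAS-2B cells treated 24 h with compound; NQO1 mRNA measured by one-step TaqMan RT-PCR on crude lysates, normalised to beta actin by ΔΔCT. Fold increase over 0.1% DMSO vehicle; EC50 from four-parameter logistic fit.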

[2] = target: T1, human KEAP1 (N-term, residues 321-609) (Homo sapiens, UniProt Q14145); test: KEAP1 Kelch Fluorescence Polarization (FP) Assay; assay type: binding; conditions: inhibition of Kelch domain-NRF2 interaction; 2 nM FITC-labelled NRF2 peptide, 25 nM KEAP1, 1 h room temperature; compounds below 10 nM cannot be differentiated
T1 construct: human KEAP1 (N-term, residues 321-609)
T1 sequence (Q14145 321-609): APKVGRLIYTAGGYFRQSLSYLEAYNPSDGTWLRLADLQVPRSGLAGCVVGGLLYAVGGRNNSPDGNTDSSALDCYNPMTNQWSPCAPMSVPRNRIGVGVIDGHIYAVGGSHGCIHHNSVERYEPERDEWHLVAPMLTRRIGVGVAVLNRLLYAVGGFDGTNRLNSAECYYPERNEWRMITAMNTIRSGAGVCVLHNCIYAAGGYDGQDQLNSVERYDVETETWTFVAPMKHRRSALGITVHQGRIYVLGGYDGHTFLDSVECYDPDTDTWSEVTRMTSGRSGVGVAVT
Summary of the method: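 Compounds in 12-point curves (top 10 μM) displaced 2 nM FITC-labelled NRF2 peptide from 25 nM KEAP1 residues 321-609 over 1 h at room temperature. Polarization read at 470/530 nm, window set by 50 μM unlabelled peptide; four-parameter fit gave IC50, floor 10 nM.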

CNC(=O)[C@@]1(C)CCCC[C@H]1C(=O)N1CCc2c(Cl)cc(F)c(OCc3nnn(C)c3C(F)F)c2[C@H]1CN1CC2(CC2)CC1=O [Example 106, (1S,2R)-2-((S)-5-chloro-8-((5-(difluoromethyl)-1-methyl-1H-1,2,3-triazol-4-yl)methoxy)-7-fluoro-1-((6-oxo-5-azaspiro[2.4]heptan-5-yl)methyl)-1,2,3,4-tetrahydroisoquinoline-2-carbonyl)-N,1-dimethylcyclohexane-1-carboxamide]
EC50 [1]: 25 nM
IC50 [2]: 6.7 nM

Cn1nnc(COc2c(F)cc(Cl)c3c2[C@@H](CN2CC4(CC4)CC2=O)N(C(=O)[C@@H]2CCCC[C@]2(C)C(N)=O)CC3)c1C(F)F [Example 107, (1S,2R)-2-((S)-5-chloro-8-((5-(difluoromethyl)-1-methyl-1H-1,2,3-triazol-4-yl)methoxy)-7-fluoro-1-((6-oxo-5-azaspiro[2.4]heptan-5-yl)methyl)-1,2,3,4-tetrahydroisoquinoline-2-carbonyl)-1-methylcyclohexane-1-carboxamide]
EC50 [1]: 37 nM
IC50 [2]: 6.2 nM

CNC(=O)[C@@]1(C)CCCC[C@H]1C(=O)N1CCc2c(Cl)cc(F)c(OCc3nnn(C)c3C(F)F)c2[C@H]1CN1CCOCC1=O [Example 108, (1S,2R)-2-((S)-5-chloro-8-((5-(difluoromethyl)-1-methyl-1H-1,2,3-triazol-4-yl)methoxy)-7-fluoro-1-((3-oxomorpholino)methyl)-1,2,3,4-tetrahydroisoquinoline-2-carbonyl)-N,1-dimethylcyclohexane-1-carboxamide]
EC50 [1]: 654 nM
IC50 [2]: 7.3 nM

CNC(=O)[C@@]1(C)CCCC[C@H]1C(=O)N1CCc2c(Cl)cc(F)c(OCc3nnn(C)c3C(F)F)c2[C@H]1CN1CCCC1=O [Example 109, (1S,2R)-2-((S)-5-chloro-8-((5-(difluoromethyl)-1-methyl-1H-1,2,3-triazol-4-yl)methoxy)-7-fluoro-1-((2-oxopyrrolidin-1-yl)methyl)-1,2,3,4-tetrahydroisoquinoline-2-carbonyl)-N,1-dimethylcyclohexane-1-carboxamide]
EC50 [1]: 140 nM
IC50 [2]: 7.5 nM

CNC(=O)[C@@]1(C)CCCC[C@H]1C(=O)N1CCc2c(Cl)cc(F)c(OCc3cn(C)nn3)c2[C@H]1CN1CC2(CC2)CC1=O [Example 110, (1S,2R)-2-((S)-5-chloro-7-fluoro-8-((1-methyl-1H-1,2,3-triazol-4-yl)methoxy)-1-((6-oxo-5-azaspiro[2.4]heptan-5-yl)methyl)-1,2,3,4-tetrahydroisoquinoline-2-carbonyl)-N,1-dimethylcyclohexane-1-carboxamide]
EC50 [1]: 66 nM
IC50 [2]: 7.1 nM

C[C@]1(C(N)=O)CCCC[C@H]1C(=O)N1CCc2c(Cl)cc(F)c(OCc3nnn4c3CCCC4)c2[C@H]1CN1CC2(CC2)CC1=O [Example 111, (1S,2R)-2-((S)-5-chloro-7-fluoro-1-((6-oxo-5-azaspiro[2.4]heptan-5-yl)methyl)-8-((4,5,6,7-tetrahydro-[1,2,3]triazolo[1,5-a]pyridin-3-yl)methoxy)-1,2,3,4-tetrahydroisoquinoline-2-carbonyl)-1-methylcyclohexane-1-carboxamide]
EC50 [1]: 30 nM
IC50 [2]: 7.2 nM

Cc1c(COc2c(F)cc(Cl)c3c2[C@@H](CN2CC4(CC4)CC2=O)N(C(=O)[C@@H]2CCCC[C@]2(C)C(N)=O)CC3)nnn1C [Example 112, (1S,2R)-2-((S)-5-chloro-8-((1,5-dimethyl-1H-1,2,3-triazol-4-yl)methoxy)-7-fluoro-1-((6-oxo-5-azaspiro[2.4]heptan-5-yl)methyl)-1,2,3,4-tetrahydroisoquinoline-2-carbonyl)-1-methylcyclohexane-1-carboxamide]
EC50 [1]: 99 nM
IC50 [2]: 7 nM

CNC(=O)[C@@]1(C)CCCC[C@H]1C(=O)N1CCc2c(Cl)ccc(OCc3nnn(C)c3C3CC3)c2[C@H]1CN1C[C@H](C)CC1=O [Example 113, (1S,2R)-2-((S)-5-chloro-8-((5-cyclopropyl-1-methyl-1H-1,2,3-triazol-4-yl)methoxy)-1-(((R)-4-methyl-2-oxopyrrolidin-1-yl)methyl)-1,2,3,4-tetrahydroisoquinoline-2-carbonyl)-N,1-dimethylcyclohexane-1-carboxamide]
EC50 [1]: 299 nM
IC50 [2]: 10.9 nM

CNC(=O)[C@H]1CCCC[C@H]1C(=O)N1CCc2c(Cl)ccc(OCc3nnn(C)c3C(F)F)c2[C@H]1CN1CC2(CC2)CC1=O [Example 114, (1S,2R)-2-((S)-5-chloro-8-((5-(difluoromethyl)-1-methyl-1H-1,2,3-triazol-4-yl)methoxy)-1-((6-oxo-5-azaspiro[2.4]heptan-5-yl)methyl)-1,2,3,4-tetrahydroisoquinoline-2-carbonyl)-N-methylcyclohexane-1-carboxamide]
EC50 [1]: 230 nM
IC50 [2]: 9.1 nM
